This note sets out measurements from the supplement of paper PMC9673313.

Compound in this test: Clc1ccc2c(N3CCN(CCCN4CCN(c5ccnc6cc(Cl)ccc56)CC4)CC3)ccnc2c1 [piperaquine]
As to the method:
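Kenyan Plasmodium falciparum field isolates (2008-2021) were tested in a SYBR Green I growth-inhibition assay, either immediately ex vivo (fresh samples) or in vitro after culture adaptation. Cultures were at 1% parasitemia and 2% hematocrit, incubated with serial drug dilutions for 72 h at 37 °C (5% O2, 5% CO2), then read by fluorescence. IC50 was fitted by non-linear regression of the dose-response curve.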

For the test system KDH 21/02/0167, the IC50 growth inhibition was 0.0233 µg/mL.
The value for KDH 15/06/1657 was 0.00996 µg/mL; that for 601-292 was 0.0322 µg/mL; that for KCH 18/09/0003 was 0.0047 µg/mL.
The value for KOM 16/08/0627 was 0.0067 µg/mL.
For KSI 12/06/270, the IC50 growth inhibition worked out at 0.0175 µg/mL.
In the case of KOM 13/08/0034, the IC50 growth inhibition came out at 0.0232 µg/mL.
MGT 17/11/133: the IC50 growth inhibition came out at 0.00335 µg/mL.
As to KDH 16/07/1832, the IC50 growth inhibition was found to be 0.00427 µg/mL.
Regarding KOM 16/07/0609, the IC50 growth inhibition was 0.0181 µg/mL.
As for KOM 18/07/0004, the IC50 growth inhibition was found to be 0.0101 µg/mL.
As to KSI 15/10/831, the IC50 growth inhibition was determined as 0.0251 µg/mL.
Consider KDH 15/04/1616, for which the IC50 growth inhibition is 0.028 µg/mL.
Regarding KDH 10/11/521, the IC50 growth inhibition came out at 0.03 µg/mL.
The same measure for KSI 15/08/809: 0.00778 µg/mL; for KOM 21/08/0327: 0.0283 µg/mL; for KDH 14/05/1402: 0.0119 µg/mL.
For KDH 21/04/0218, the IC50 growth inhibition came out at 0.003 µg/mL.
Take KOM 14/09/317: the IC50 growth inhibition came out at 0.0159 µg/mL.
As to KOM 16/07/0620, the IC50 growth inhibition is 0.0115 µg/mL.
The same measure for KSI 13/10/422: 0.0199 µg/mL; for KCH 10/06/120: 0.163 µg/mL; for KDH 19/12/0157: 0.0175 µg/mL.
For the test system KOM 21/08/0344, the IC50 growth inhibition was 0.0249 µg/mL.
As for KDH 16/07/1829, the IC50 growth inhibition was found to be 0.00272 µg/mL.
As to KDH 16/07/1831, the IC50 growth inhibition worked out at 0.0278 µg/mL.
On to MGT 15/06/0090, for which the IC50 growth inhibition was found to be 0.0343 µg/mL.
For the test system KDH 15/06/1659, the IC50 growth inhibition is 0.0165 µg/mL.
Turning to KCH 11/05/145, the IC50 growth inhibition worked out at 0.012 µg/mL.
Turning to KSI 10/09/106, the IC50 growth inhibition is 0.201 µg/mL.
The same measure for MGT 13/11/0003: 0.0229 µg/mL; for MGT 14/03/0007: 0.0064 µg/mL; for MGT 21/08/0119: 0.0896 µg/mL.
Turning to 601-0163, the IC50 growth inhibition turned out to be 0.022 µg/mL.
The same measure for MGT 19/09/0057: 0.0297 µg/mL; for KSI 18/09/0006: 0.00686 µg/mL.
Consider KOM 20/02/0179, for which the IC50 growth inhibition turned out to be 0.0157 µg/mL.
The same measure for KSI 16/07/908: 0.00524 µg/mL.
The value for KSI 14/03/506 was 0.0128 µg/mL; that for KOM 15/04/398 was 0.00975 µg/mL.
KCH 10/05/0116: the IC50 growth inhibition stood at 0.00881 µg/mL.
With KOM 14/03/169, the IC50 growth inhibition stood at 0.015 µg/mL.
In the case of KOM 15/05/417, the IC50 growth inhibition amounted to 0.00145 µg/mL.
For MDH 12/01/0062, the IC50 growth inhibition was determined as 0.019 µg/mL.
For the test system KSI 13/10/430, the IC50 growth inhibition was found to be 0.00784 µg/mL.
On to KSI 16/07/912, for which the IC50 growth inhibition was 0.0151 µg/mL.
The same measure for KSI 9/06/0001: 0.504 µg/mL; for KSI 13/05/346: 0.0502 µg/mL; for KSI 21/04/0063: 0.003 µg/mL.
Consider KCH 13/9/226, for which the IC50 growth inhibition was 0.0268 µg/mL.
The value for KOM 21/03/0254 was 0.0021 µg/mL.
The value for KDH 16/07/1830 was 0.00694 µg/mL; that for KOM 19/12/0150 was 0.00909 µg/mL.
For the test system KOM 13/07/0010, the IC50 growth inhibition is 0.00114 µg/mL.
The value for MGT16/01/118 was 0.00304 µg/mL; that for KSI 16/08/916 was 0.0148 µg/mL.
The value for KOM 19/12/0166 was 0.0355 µg/mL.
Turning to KOM 21/05/0277, the IC50 growth inhibition stood at 0.0353 µg/mL.
For MDH 11/12/0052, the IC50 growth inhibition worked out at 0.00417 µg/mL.
For KDH 10/02/0354, the IC50 growth inhibition was 0.016 µg/mL.
The same measure for KCH 16/07/365: 0.0312 µg/mL; for KOM 19/12/151: 0.0169 µg/mL; for KSI 12/12/304: 0.0244 µg/mL.
The same measure for KSI 15/04/743: 0.00175 µg/mL.
On to KOM 20/01/0168, for which the IC50 growth inhibition is 0.0157 µg/mL.
In the case of KDH 21/08/0254, the IC50 growth inhibition is 0.0379 µg/mL.
Turning to MGT 14/03/0012, the IC50 growth inhibition turned out to be 0.00831 µg/mL.
Regarding KDH 20/01/0166, the IC50 growth inhibition came to 0.0768 µg/mL.
On to KSI 14/02/488, for which the IC50 growth inhibition worked out at 0.0157 µg/mL.
With KDH 11/10/733, the IC50 growth inhibition was found to be 5.01 µg/mL.
MGT 21/08/0109: the IC50 growth inhibition came out at 0.0004 µg/mL.
For the test system KDH 18/07/0001, the IC50 growth inhibition was 0.00119 µg/mL.
Consider KDH 15/06/1658, for which the IC50 growth inhibition amounted to 0.0205 µg/mL.
For the test system KOM 21/02/0237, the IC50 growth inhibition was 0.001 µg/mL.
For the test system KDH 21/02/0198, the IC50 growth inhibition turned out to be 0.0345 µg/mL.
Turning to MDH 13/08/145, the IC50 growth inhibition is 0.0248 µg/mL.
Consider 601-0018, for which the IC50 growth inhibition was determined as 0.00948 µg/mL.
Regarding KOM 19/12/0149, the IC50 growth inhibition amounted to 0.0283 µg/mL.
KDH 14/05/1397: the IC50 growth inhibition was 0.0137 µg/mL.
In the case of KOM 21/08/0353, the IC50 growth inhibition is 0.0415 µg/mL.
For KOM 21/04/0219, the IC50 growth inhibition was 0.0227 µg/mL.
The same measure for KDH 20/01/0159: 0.0288 µg/mL; for KDH 19/12/0155: 0.0208 µg/mL.
Consider KSI 10/09/096, for which the IC50 growth inhibition is 0.0116 µg/mL.
As for KDH 10/12/535, the IC50 growth inhibition turned out to be 0.0114 µg/mL.
The same measure for MGT 14/08/034: 0.0295 µg/mL; for 601-006: 0.016 µg/mL.
On to KCH 17/09/374, for which the IC50 growth inhibition was found to be 0.00492 µg/mL.
Regarding KSI 10/9/111, the IC50 growth inhibition is 0.284 µg/mL.
KDH 16/07/1828: the IC50 growth inhibition was determined as 0.0285 µg/mL.
Turning to KDH 20/01/0163, the IC50 growth inhibition was found to be 0.0245 µg/mL.
For KOM 15/03/383, the IC50 growth inhibition is 0.00453 µg/mL.
For KOM 21/05/0262, the IC50 growth inhibition came to 0.0794 µg/mL.
Regarding KSI 13/1/307, the IC50 growth inhibition was found to be 0.041 µg/mL.
Consider KSI 15/06/782, for which the IC50 growth inhibition stood at 0.0255 µg/mL.
For the test system MDH 18/09/0008, the IC50 growth inhibition amounted to 0.00325 µg/mL.
Turning to KCH 15/09/334, the IC50 growth inhibition was 0.00243 µg/mL.
601-239: the IC50 growth inhibition amounted to 0.0156 µg/mL.
For the test system 601-257, the IC50 growth inhibition was determined as 0.112 µg/mL.
On to MGT 21/05/0116, for which the IC50 growth inhibition was found to be 0.0046 µg/mL.
As to 601-0031, the IC50 growth inhibition worked out at 0.0161 µg/mL.
For the test system KCH 15/10/339, the IC50 growth inhibition came out at 0.00252 µg/mL.
As for KCH 10/04/099, the IC50 growth inhibition came to 0.517 µg/mL.
The same measure for KCH 11/04/143: 0.0205 µg/mL; for KDH 14/05/1379: 0.0283 µg/mL; for MDH 10/8/0014: 0.00139 µg/mL.
In the case of KOM 14/06/270, the IC50 growth inhibition was determined as 0.0171 µg/mL.
Regarding KOM 13/07/0007, the IC50 growth inhibition amounted to 0.00616 µg/mL.
As for KDH 15/01/1569, the IC50 growth inhibition came to 0.00462 µg/mL.
The same measure for MGT 14/03/0009: 0.0624 µg/mL.
Consider KDH 13/09/1180, for which the IC50 growth inhibition worked out at 0.00678 µg/mL.
The value for KSI 16/06/900 was 0.0333 µg/mL.
Consider KSI 13/3/323, for which the IC50 growth inhibition came to 0.0287 µg/mL.
The same measure for 601-0186: 0.0596 µg/mL; for KOM 21/03/267: 0.0023 µg/mL.
On to KOM 13/11/116, for which the IC50 growth inhibition was found to be 0.0287 µg/mL.
Regarding KSI 16/07/906, the IC50 growth inhibition was 0.038 µg/mL.
Regarding KSI 17/10/920, the IC50 growth inhibition came to 0.00471 µg/mL.
Regarding MGT 18/08/0004, the IC50 growth inhibition stood at 0.00164 µg/mL.
On to KSI 13/04/334, for which the IC50 growth inhibition worked out at 0.0195 µg/mL.
Consider 601-0189, for which the IC50 growth inhibition was determined as 0.0275 µg/mL.
The value for KCH 16/05/361 was 0.00583 µg/mL; that for 601-209 was 0.0646 µg/mL.
KCH 15/05/310: the IC50 growth inhibition is 0.0734 µg/mL.
Regarding KCH19/06/0013, the IC50 growth inhibition was 0.0146 µg/mL.
As to KSI 13/06/360, the IC50 growth inhibition turned out to be 0.00681 µg/mL.
The value for KOM 21/03/0202 was 0.003 µg/mL; that for MDH 19/12/0045 was 0.0302 µg/mL.
The value for KDH 19/07/0120 was 0.00745 µg/mL; that for KOM 16/07/0616 was 0.0305 µg/mL.
As for KDH 15/04/1619, the IC50 growth inhibition worked out at 0.0223 µg/mL.
KSI 19/06/0032: the IC50 growth inhibition was found to be 0.0281 µg/mL.
With KOM 21/03/0292, the IC50 growth inhibition amounted to 0.0137 µg/mL.
With KDH 11/10/728, the IC50 growth inhibition is 0.105 µg/mL.
As for KSI 15/06/786, the IC50 growth inhibition was determined as 0.0146 µg/mL.
On to KOM 13/09/0051, for which the IC50 growth inhibition amounted to 0.0206 µg/mL.
KOM 15/05/416: the IC50 growth inhibition was determined as 0.00162 µg/mL.
With MDH 18/08/003, the IC50 growth inhibition amounted to 0.00381 µg/mL.
